{
  "source": "patent US20250221405A1",
  "about": "“ROOT NODULE FORMATION-PROMOTING COMPOSITION, AND ROOT HAIR FORMATION-PROMOTING COMPOSITION” (KANEKA CORPORATION, priority 2022, published 2025)",
  "key": {"soybeans (Fukuyutaka) [1]": {"tested_on": "soybeans (Fukuyutaka)", "test": "Experimental Example 2: soil irrigation with composition comprising rhizobium materials, number of root nodules", "type": "in vivo, soybean", "method": "For each of the following treatment, to a mixture of rhizobium materials (rhizobium and azospirillum) mixed with water at a proportion of 10 g/L, SF, SL, or RL was added in the following amount to prepare a solution comprising the rhizobium materials and SF, SL, or RL (a composition for promoting root nodule formation).\nA 9 cm poly pot was filled with culture soil and seeded with three seeds of soybeans (Fukuyutaka) in each pot.\nAfter seeding, the seeds were cultivated in a greenhouse set at 28° C. during the day (14h) and 18° C. at night (10h).\nSeven days after the seeding, the soybeans in each pot were thinned to one plant, and each pot was irrigated with 4.3 ml of the composition for promoting root nodule formation (in the treatment T1, a mixture of rhizobium materials (rhizobium and azospirillum) mixed with water at a proportion of 10 g/L).\n(§1) Twenty-one days after the irrigation, the roots were washed with water so as not to remove root nodules, the culture soil was removed, and then, the root nodules formed on the roots were collected.\nAfter the seeding, each pot was fertilized with ½ Hoagland solution (50 mL) once a week. In addition, experiments were conducted on eight pots (eight plants) in each treatment.\n(§2) A plurality of experiments were conducted by changing the type of the composition for promoting root nodule formation and the like. Tables 2-1 and 2-2 show the date of seeding, the date of irrigating, the date of investigating the number of root nodules, the composition for promoting root nodule formation, and the investigation result of the number of root nodules. Note that the number of root nodules is indicated by a relative value with T1 taken as 100, with a numerical value in parentheses indicating the average number of root nodules actually measured (pieces/plant)."}, "soybeans (Fukuyutaka) [2]": {"tested_on": "soybeans (Fukuyutaka)", "test": "Experimental Example 1: seed coating, number of root nodules", "type": "in vivo, soybean", "conditions": "Table 1-1", "method": "A solution of SF, SL, or RL dissolved in water (a composition for promoting root nodule formation) as the following amount in each of the following treatments was prepared. The seeds of soybeans (Fukuyutaka) were coated using the solution in an amount of 800 μL/100 g seed to obtain coated seeds.\nA 9 cm poly pot was filled with culture soil and seeded with three coated seeds in each pot.\nAfter seeding, the coated seeds were cultivated in a greenhouse set at 28° C. during the day (14h) and 18° C. at night (10h).\nSeven days after the seeding, the soybeans in each pot were thinned to one plant, and each pot was irrigated with 4.3 ml of a mixture of rhizobium materials (rhizobium and azospirillum) mixed with water at a proportion of 10 g/L.\nas §1\nAfter the seeding, each pot was fertilized with ½ Hoagland solution once a week. In addition, experiments were conducted on eight pots (eight plants) in each treatment.\nas §2, with “1-1” for “2-1”, “1-2” for “2-2”, “nodules, the amount of SF, SL, or RL in” for “nodules,”, “Tl” for “T1”"}, "[3]": {"tested_on": "Japanese mustard spinach (Haru no Senbatsu)", "test": "Experimental Example 6: SF in agar medium, microscopic observation of root hair", "type": "in vivo", "set-up": "key: those with a significant root hair increase observed were evaluated as AA; those with a root hair increase observed were evaluated as BB; those with no root hair increase observed were evaluated as CC; those with an overall or partial root hair decrease observed were evaluated as DD", "conditions": "Table 10, eight days after seeding", "method": "An observation tank (a composition for promoting root hair formation) formed by adding 1% SF aqueous solution to ½ MS agar medium (0.8% agar) so as to obtain the following dilution factor was prepared in an acrylic tank. Japanese mustard spinach (Haru no Senbatsu) was seeded near the surface of the observation tank.\nAfter seeding, the Japanese mustard spinach was cultivated in an incubator set in a light period (6:00-18:00, temperature 26° C., illuminance 120 μmol/m^2·s) and a dark period (18:00-6:00, temperature 18° C.).\nEight days after the seeding, the amount of root hair at a point of 1 cm from the tip of the roots was observed under a microscope (microscopic observation). In the T1 (Control), ½ MS agar medium without mixing 1% SF aqueous solution in the medium was used as the observation tank.\nAs a result of the observation, compared with the T1, those with a significant root hair increase observed were evaluated as AA, those with a root hair increase observed were evaluated as BB, those with no root hair increase observed were evaluated as CC, and those with an overall or partial root hair decrease observed were evaluated as DD.\nA plurality of experiments were conducted by changing the date of seeding, the date of observation, and the type of the composition for promoting root hair formation and the like. […]"}, "[4]": {"tested_on": "Japanese mustard spinach (Haru no Senbatsu)", "test": "Experimental Example 5: foliar application, microscopic observation of root hair", "type": "in vivo", "set-up": "key: those with a significant root hair increase observed were evaluated as AA; those with a root hair increase observed were evaluated as BB; those with no root hair increase observed were evaluated as CC; those with an overall or partial root hair decrease observed were evaluated as DD", "method": "An observation tank formed with ½ MS agar medium (0.8% agar) was prepared in an acrylic tank. Japanese mustard spinach (Haru no Senbatsu) was seeded near the surface of the observation tank. After seeding, the Japanese mustard spinach was cultivated in an incubator set in a light period (6:00-18:00, temperature 26° C., illuminance 120 μmol/m^2·s) and a dark period (18:00-6:00, temperature 18° C.). Twelve to fourteen days after the seeding, the following liquid (a composition for promoting root hair formation) was applied on the leaf surfaces of the plant body (foliar application) so as not to drip on the agar in each of the following treatments. […] A plurality of experiments were conducted by changing the date of seeding, the date of foliar application, the date of observation, and the type of the composition for promoting root hair formation and the like. Tables 5 to 9 show the composition for promoting root hair formation, the outline of operation and the observation results of root hair."}, "[5]": {"conditions": "Table 2-1, irrigation 4.3 ml, diluted 100 times"}, "[6]": {"conditions": "Table 2-1, irrigation, diluted 500 times"}, "[7]": {"conditions": "Table 2-1, irrigation, diluted 1000 times"}, "[8]": {"conditions": "seed coating 0.1 g/t seed (diluted 80000 times), 21 days after rhizobium irrigation"}, "[9]": {"conditions": "seed coating 1 g/t seed (diluted 8000 times)"}, "[10]": {"conditions": "seed coating 5 g/t seed (diluted 1600 times)"}, "[11]": {"conditions": "seed coating 10 g/t seed (diluted 800 times)"}, "[12]": {"conditions": "seed coating 25 g/t seed (diluted 320 times)"}, "[13]": {"conditions": "seed coating 50 g/t seed (diluted 160 times)"}},
  "data": [
    {"substance": "surfactin Na [SF]", "values": [
      {"measurement": "Number of Root Nodules, average number actually measured", "setting": "soybeans (Fukuyutaka) [1]; [5]", "value": 15.9, "unit": "pieces/plant"},
      {"measurement": "Number of Root Nodules, relative value with T1 taken as 100", "setting": "soybeans (Fukuyutaka) [1]; [5]", "value": 109},
      {"measurement": "Number of Root Nodules, average number actually measured", "setting": "soybeans (Fukuyutaka) [1]; [6]", "value": 16.3, "unit": "pieces/plant"},
      {"measurement": "Number of Root Nodules, relative value with T1 taken as 100", "setting": "soybeans (Fukuyutaka) [1]; [6]", "value": 111},
      {"measurement": "Number of Root Nodules, average number actually measured", "setting": "soybeans (Fukuyutaka) [1]; [7]", "value": 16.9, "unit": "pieces/plant"},
      {"measurement": "Number of Root Nodules, relative value with T1 taken as 100", "setting": "soybeans (Fukuyutaka) [1]; [7]", "value": 115},
      {"measurement": "Number of Root Nodules, average number actually measured", "setting": "soybeans (Fukuyutaka) [2]; [8]", "value": 15.4, "unit": "pieces/plant"},
      {"measurement": "Number of Root Nodules, relative value with T1 taken as 100", "setting": "soybeans (Fukuyutaka) [2]; [8]", "value": 105},
      {"measurement": "Number of Root Nodules, average number actually measured", "setting": "soybeans (Fukuyutaka) [2]; [9]", "value": 16.6, "unit": "pieces/plant"},
      {"measurement": "Number of Root Nodules, relative value with T1 taken as 100", "setting": "soybeans (Fukuyutaka) [2]; [9]", "value": 114},
      {"measurement": "Number of Root Nodules, average number actually measured", "setting": "soybeans (Fukuyutaka) [2]; [10]", "value": 16.6, "unit": "pieces/plant"},
      {"measurement": "Number of Root Nodules, relative value with T1 taken as 100", "setting": "soybeans (Fukuyutaka) [2]; [10]", "value": 114},
      {"measurement": "Number of Root Nodules, average number actually measured", "setting": "soybeans (Fukuyutaka) [2]; [11]", "value": 15.4, "unit": "pieces/plant"},
      {"measurement": "Number of Root Nodules, relative value with T1 taken as 100", "setting": "soybeans (Fukuyutaka) [2]; [11]", "value": 105},
      {"measurement": "Number of Root Nodules, average number actually measured", "setting": "soybeans (Fukuyutaka) [2]; [12]", "value": 16.8, "unit": "pieces/plant"},
      {"measurement": "Number of Root Nodules, relative value with T1 taken as 100", "setting": "soybeans (Fukuyutaka) [2]; [12]", "value": 115},
      {"measurement": "Number of Root Nodules, average number actually measured", "setting": "soybeans (Fukuyutaka) [2]; [13]", "value": 17.3, "unit": "pieces/plant"},
      {"measurement": "Number of Root Nodules, relative value with T1 taken as 100", "setting": "soybeans (Fukuyutaka) [2]; [13]", "value": 118},
      {"measurement": "Observation Result (root hair)", "setting": "[3]; agar medium with SF diluted 5000 times", "value": "AA"},
      {"measurement": "Observation Result (root hair)", "setting": "[3]; agar medium with SF diluted 10000 times", "value": "BB"},
      {"measurement": "Observation Result (root hair)", "setting": "[4]; Table 5, aqueous solution diluted 1000 times, compared with T1", "value": "BB"},
      {"measurement": "Observation Result (root hair)", "setting": "[4]; Table 5, aqueous solution diluted 2000 times", "value": "AA"},
      {"measurement": "Observation Result (root hair)", "setting": "[4]; Table 5, aqueous solution diluted 5000 times", "value": "AA"}
    ]}
  ]
}
